# Assay results taken from PubChem BioAssay (NCI).
#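 Assay format: 96-well plates, 48-hour exposure. GI50 marks 50% less growth. TGI: total growth inhibition.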
# How the values were obtained:
# Experiment in all cases: NCI anticancer screen, dose series, 48 h
# [1] = tested on: CAKI-1 renal
# [2] = tested on: COLO 205 colon
# [3] = tested on: UACC-62 melanoma
# [4] = tested on: TK-10 renal
# [5] = tested on: HT29 colon
# [6] = tested on: LOX IMVI melanoma
# [7] = tested on: MDA-MB-435
# [8] = tested on: SNB-75 CNS
# [9] = tested on: MOLT-4 leukemia
# [10] = tested on: OVCAR-4 ovarian
# [11] = tested on: A498 renal
Structure (SMILES),TGI [1],TGI [2],TGI [3],TGI [4],TGI [5],TGI [6],TGI [7],TGI [8],TGI [9],TGI [10],TGI [11],GI50 [1],GI50 [2],GI50 [11],GI50 [3],GI50 [5],GI50 [7]
CC#CC(O)(C(=O)OC1CC(C)N(C)C(C)(C)C1)C1CCCC1 (stereo not given),> 100 µM,> 100 µM,> 100 µM,> 100 µM,> 100 µM,> 100 µM,> 100 µM,> 100 µM,> 100 µM,,,,,,,,
COC(=O)N1N=C(c2ccccc2)C1c1ccccc1 (stereo not given),> 100 µM,> 100 µM,63.3 µM,> 100 µM,> 100 µM,82.8 µM,> 100 µM,> 100 µM,> 100 µM,> 100 µM,> 100 µM,,,,,,
O=C(CC(C(=O)c1ccco1)c1ccco1)c1ccco1 (stereo not given),> 100 µM,> 100 µM,> 100 µM,> 100 µM,> 100 µM,> 100 µM,> 100 µM,> 100 µM,> 100 µM,> 100 µM,> 100 µM,,,,,,
O=[N+]([O-])c1cccc2c(N=Nc3ccc4ccccc4c3O)c(O)cc(S(=O)(=O)O)c12,> 100 µM,,> 100 µM,> 100 µM,> 100 µM,> 100 µM,> 100 µM,> 100 µM,> 100 µM,> 100 µM,,,,,,,
O=C(/C=C/c1ccc2c(c1)OCO2)Cc1nc2ccccc2[nH]c1=O,48.1 µM,> 100 µM,> 100 µM,34.2 µM,> 100 µM,> 100 µM,46.1 µM,,> 100 µM,,65.7 µM,,,,,,
O=C1c2cccc(O)c2C(=O)c2c(O)cc(CO)cc21,> 100 µM,> 100 µM,,> 100 µM,> 100 µM,> 100 µM,,> 100 µM,> 100 µM,> 100 µM,> 100 µM,,,,,,
O=C(OCC1OC(n2nc(Cn3nnc(-c4cccnc4)n3)n(-c3cccc4ccccc34)c2=S)C(OC(=O)c2ccccc2)C1OC(=O)c1ccccc1)c1ccccc1 (stereo not given),> 100 µM,> 100 µM,> 100 µM,> 100 µM,> 100 µM,> 100 µM,> 100 µM,> 100 µM,> 100 µM,> 100 µM,> 100 µM,,,,,,
COC(=O)C1(O)C(c2ccccc2)=NC2(C)CCCC21 (stereo not given),> 100 µM,> 100 µM,> 100 µM,> 100 µM,> 100 µM,> 100 µM,> 100 µM,> 100 µM,> 100 µM,> 100 µM,> 100 µM,,,,,,
Clc1ccc(/C(=C\c2ccccc2)Cn2ccnc2)cc1,30.1 µM,28.6 µM,35.8 µM,> 100 µM,30.1 µM,22.9 µM,34.6 µM,59.4 µM,> 100 µM,> 100 µM,42.1 µM,,,,,,
O=C(CC(=O)Nc1ccccc1)NNC(c1cc(N=Nc2ccc(Br)cc2)ccc1O)P(O)O (stereo not given),> 10 µM,> 10 µM,9.13 µM,> 10 µM,> 10 µM,> 10 µM,> 10 µM,> 10 µM,4.15 µM,> 10 µM,8.72 µM,,,,,,
O=[N+]([O-])/C(Cl)=C(\NCCN/C(C(Cl)=C(Cl)Cl)=C(/Cl)[N+](=O)[O-])C(Cl)=C(Cl)Cl,> 100 µM,> 100 µM,> 100 µM,> 100 µM,,37.8 µM,> 100 µM,> 100 µM,80.7 µM,,> 100 µM,,,,,,
CCOP(=O)(OCC)OC1CC(n2cc(C)c(=O)n(C)c2=O)OC1CO[Si](C)(C)C(C)(C)C (stereo not given),> 100 µM,> 100 µM,> 100 µM,> 100 µM,> 100 µM,> 100 µM,> 100 µM,> 100 µM,> 100 µM,> 100 µM,,,,,,,
C=CC(=O)N1C/C(=C\c2ccc(Cl)cc2)C(=O)/C(=C/c2ccc(Cl)cc2)C1,1.32 µM,0.719 µM,1.02 µM,4.01 µM,0.326 µM,0.229 µM,0.785 µM,1.64 µM,,1.22 µM,1.25 µM,,,,,,
O=S1(=O)C[C@@H](NCc2ccccc2)[C@H](NCc2ccccc2)C1,> 100 µM,> 100 µM,> 100 µM,> 100 µM,> 100 µM,> 100 µM,> 100 µM,> 100 µM,> 100 µM,> 100 µM,,,,,,,
CC(C)C(N)C(=O)NC(CCC(=O)NCCCCC(N)C(=O)NCCCNc1ccc([N+](=O)[O-])c2[nH]c3ccccc3c(=O)c12)C(N)=O (stereo not given),> 100 µM,> 100 µM,> 100 µM,> 100 µM,,80.2 µM,> 100 µM,> 100 µM,,> 100 µM,> 100 µM,,,,,,
S=C1NC2=C(CSC/C2=C\c2ccccc2)C(c2ccccc2)N1 (stereo not given),> 100 µM,> 100 µM,> 100 µM,> 100 µM,> 100 µM,> 100 µM,,,> 100 µM,> 100 µM,,,,,,,
O=C1OC(c2ccccc2)N(C(=O)c2ccccc2)C1Cc1ccc(OCc2ccccc2)cc1 (stereo not given),,> 100 µM,> 100 µM,> 100 µM,,> 100 µM,> 100 µM,> 100 µM,,,33.5 µM,,,,,,
CCOC(=O)NC(Nc1c(F)c(F)c(F)c(F)c1F)(C(F)(F)F)C(F)(F)F,> 100 µM,> 100 µM,> 100 µM,> 100 µM,,> 100 µM,> 100 µM,> 100 µM,> 100 µM,,> 100 µM,,,,,,
CC(=O)Oc1c(C)c(C)c2c(c1C)CCC(C)(CC(=O)OCCCCCCCCCCC[P+](c1ccccc1)(c1ccccc1)c1ccccc1)O2 (stereo not given),3.27 µM,1.39 µM,0.982 µM,,2.29 µM,,1.2 µM,,,,2 µM,1720 nM,391 nM,385 nM,291 nM,707 nM,310 nM
COc1cc([N+](=O)[O-])c(OC)c2c(Nc3ccc(S(=O)(=O)O)c4cc(S(=O)(=O)O)cc(S(=O)(=O)O)c34)cc(C)nc12,> 100 µM,> 100 µM,> 100 µM,> 100 µM,> 100 µM,> 100 µM,> 100 µM,> 100 µM,> 100 µM,,> 100 µM,,,,,,
O=[N+]([O-])c1ccc2c(c1)c(N=NC(=S)Nc1ccc(Cl)cc1)c(O)n2CN1CCOCC1,12.4 µM,27.8 µM,17.7 µM,24.5 µM,,23.8 µM,19.2 µM,25.8 µM,2.97 µM,21.6 µM,,,,,,,
